Patent publication US10035810B2, “5,6-dihydro-4H-benzo[b]thieno-[2,3-d]azepine derivative” (PULMOCIDE LIMITED, priority 2014, dated 2018)

What was measured:
[1] = system: RSV NS-1 gene transcripts; assay: RSV infection in cotton rats: RSV NS-1 gene transcript in lung (qRT-PCR); assay type: in vivo, cotton rats (Sigmodon hispidus); conditions: infected cotton rats
Method: (§1) RSV Infection in Cotton Rats
(§2) Male Sigmodon hispidus cotton rats between 6 and 8 weeks of age were infected with hRSV/A/Long (ATCC, Manassas, Va.; 10^5 pfu) in a volume of 0.1 mL of sucrose stabilizing media. Compound (I) was dissolved in 100% DMSO (at 3.3, 10, 33 and 100 mg/mL), then diluted at 1:10 in isotonic saline to achieve 10% DMSO in all treatments. Formulations were then sonicated to produce suspensions. The resulting suspensions were administered intranasally (50 μL) by pipette 4 hr before infection (on day 0), and then on days 1, 2 and 3 post infection. Four days after RSV challenge, the animals were euthanised and the lungs were removed. The left lobe was used for viral titration via plaque assay and the lingular lobe for RSV/A/Long NS-1 qRT-PCR and cytokine qRT-PCR.
Total RNA was also extracted from homogenized lung tissue (RNeasy purification kit; Qiagen) and a sample (1 μg) was used to prepare cDNA using QuantiTect Reverse Transcription Kit (Qiagen). For real-time PCR reactions (RSV NS-1 and RANTES genes) the QuantiFast SYBR® Green PCR Kit (Qiagen) was used in a final volume of 25 μL, with final primer concentrations of 0.5 μM. […] Baseline cycles and cycle threshold (Ct) were calculated by the iQ5 software in the PCR Base Line Subtracted Curve Fit mode. […] The mRNA levels were expressed as the geometric mean±SEM for all animals in a group.

RSV A2 = assay: RSV infection in mice: virus titre in lung homogenate (plaque assay); assay type: in vivo, mice (male BALB/C); conditions: RSV A2 infected mice
Method: Non-fasted mice (male BALB/C, 20-30 g) were infected intranasally with RSV A2 or virus diluent (DMEM, 2% FBS, 12.5% sucrose) under isoflurane (5% in O2) anaesthesia. The A2 strain of RSV (50 uL of 1.3×10^6 PFU/mL: final 0.65×10^5 PFU/mouse) was instilled into each nostril in a drop wise fashion alternating between the two until a volume of 50 μL was delivered. Following infection each animal was weighed on a daily basis to monitor changes. Compound (I) was dissolved in 100% DMSO (at 20 mg/mL and/or 2 mg/mL), then diluted at 1:10 in isotonic saline to achieve 10% DMSO in all treatments. Formulations were then sonicated to produce a suspension. The suspension was administered intratracheally (20 μL) with a FMJ-250 PennCentury device or intranasally (40 μL) with a pipette on 1 day and 1 hr before infection (day 0), and then on days 1, 2 and 3 post infection. Four days after RSV challenge, the animals were euthanised (by intraperitoneal injection of a pentobarbitone overdose), the trachea cannulated and BALF extracted for total and differential cell counts. […]
Anti-RSV F-protein antibody [2F7] […] Plaques were counted by eye and confirmed using light microscopy, allowing the calculation of plaque forming units per mL of lung homogenate supernatant.

RANTES gene transcript = assay: RSV infection in cotton rats: RANTES gene transcript in lung (qRT-PCR); assay type: in vivo, cotton rats (Sigmodon hispidus); conditions: for RANTES gene transcript % inhibition / RANTES gene transcript (/β-actin), Median: cotton rats, lung, intranasal
Method: as §1, §2
Total RNA was also extracted from homogenized lung tissue (RNeasy purification kit; Qiagen) and a sample (1 μg) was used to prepare cDNA using QuantiTect Reverse Transcription Kit (Qiagen). For real-time PCR reactions (RSV NS-1 and RANTES genes) the QuantiFast SYBR® Green PCR Kit (Qiagen) was used in a final volume of 25 μL, with final primer concentrations of 0.5 μM. Amplifications were performed on a Bio-Rad iCycler for 1 cycle of 95° C. for 3 min, followed by 40 cycles of 95° C. for 10 sec, 60° C. for 10 sec, and 72° C. for 15 sec. Baseline cycles and cycle threshold (Ct) were calculated by the iQ5 software in the PCR Base Line Subtracted Curve Fit mode. The standard curves were developed using serially diluted cDNA sample most enriched in the transcript of interest (e.g., lungs from day 4 post-primary RSV infection). The Ct values were plotted against login cDNA dilution factor. These curves were used to convert the Ct values obtained for different samples to relative expression units which were then normalized to the level of β-actin mRNA (“housekeeping gene”) expressed in the corresponding sample. The mRNA levels were expressed as the geometric mean±SEM for all animals in a group.

Cc1cnc(N2CC3(CCOCC3)C2)c(C(=O)Nc2ccc(C(=O)N3CCc4cc(C(=O)Nc5c(C)cccc5F)sc4-c4ccccc43)cc2)c1 [Compound (I), N-(2-fluoro-6-methylphenyl)-6-(4-(5-methyl-2-(7-oxa-2-azaspiro[3.5]nonan-2-yl)nicotinamido)benzoyl)-5,6-dihydro-4H-benzo[b]thieno[2,3-d]azepine-2-carboxamide]
RSV NS-1 gene transcripts in lung (in words) [1]: dose-dependent inhibition of RSV NS-1 gene transcripts | Virus titre in the lungs (in words) (RSV A2): completely inhibited virus titre | Viral titre in lung homogenates (in words) (RSV A2; intranasally or intratracheally): potent dose-dependent inhibition of viral titre | RANTES gene transcript % inhibition (RANTES gene transcript; 0.33 mg/mL): 28% | RANTES gene transcript (/β-actin), Median (RANTES gene transcript; 0.33 mg/mL): 0.21 /β-actin | RANTES gene transcript % inhibition (RANTES gene transcript; 1.0 mg/mL): 45% | RANTES gene transcript (/β-actin), Median (RANTES gene transcript; 1.0 mg/mL): 0.16 /β-actin | RANTES gene transcript % inhibition (RANTES gene transcript; 3.3 mg/mL): 62% | RANTES gene transcript (/β-actin), Median (RANTES gene transcript; 3.3 mg/mL): 0.11 /β-actin | RANTES gene transcript % inhibition (RANTES gene transcript; 10 mg/mL): 55% | RANTES gene transcript (/β-actin), Median (RANTES gene transcript; 10 mg/mL): 0.13 /β-actin | RANTES transcripts in lung (in words) (RANTES gene transcript; infected cotton rats): dose-dependent inhibition
